Assay results reported in article PMC6162330, “Insights into a dual function amide oxidase/macrocyclase from lankacidin biosynthesis” (Nature Communications, 2018).
Values belong to the compound of their own block, whether it stands above or below them.

Experiments:
[1] = target: T1, LkcE (Streptomyces rochei, UniProt G4V2H3); assay: X-ray crystallography, […] Å; mass spectrometry of released cofactor; type: binding; conditions: non-covalent; co-purified; selenomethionyl holo crystal
T1 construct: recombinant from E. coli (pBG-102), His6-SUMO tag removed by HRV3C protease
T1 sequence (G4V2H3 entry or part of it): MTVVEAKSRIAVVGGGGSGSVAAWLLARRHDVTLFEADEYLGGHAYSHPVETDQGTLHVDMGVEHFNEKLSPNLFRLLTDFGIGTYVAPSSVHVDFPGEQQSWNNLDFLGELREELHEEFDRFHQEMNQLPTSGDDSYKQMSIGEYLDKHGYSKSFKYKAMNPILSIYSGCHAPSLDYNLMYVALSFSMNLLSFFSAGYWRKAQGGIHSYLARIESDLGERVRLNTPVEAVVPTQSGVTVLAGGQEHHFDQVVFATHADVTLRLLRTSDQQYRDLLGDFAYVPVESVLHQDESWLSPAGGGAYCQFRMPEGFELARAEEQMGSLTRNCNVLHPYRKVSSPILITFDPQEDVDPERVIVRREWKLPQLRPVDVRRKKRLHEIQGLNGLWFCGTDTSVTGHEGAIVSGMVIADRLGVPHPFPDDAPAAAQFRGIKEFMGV

[2] = target: T1, LkcE; assay: X-ray crystallography, […] Å, co-crystal; type: binding; conditions: active site, one of the two per site, no turnover
[3] = target: LkcE wild type (amide oxidase/macrocyclase of lankacidin biosynthesis, Streptomyces rochei) (Streptomyces rochei); assay: SAXS; recombinant LkcE in solution; Rg 31.0 Å, Dmax 91 Å; compared with the homodimer's calculated mass and the LkcEWT crystal structure

X-ray crystallography, 3.15 Å; mass spectrometry of released cofactor [1]: the FAD cofactor is non-covalently bound
Compound: Cc1cc2nc3c(=O)[nH]c(=O)nc-3n(C[C@H](O)[C@H](O)[C@H](O)COP(=O)(O)OP(=O)(O)OC[C@H]3O[C@@H](n4cnc5c(N)ncnc54)[C@H](O)[C@@H]3O)c2cc1C [FAD]

Compound: CCOC(=O)[C@H](C)C(C)=O [compound 4, EMAA]
X-ray crystallography, 2.80 Å, co-crystal ([2]; position overlaps DATD): clear electron density attributable to EMAA and DATD

Compound: C=CCNC(=O)[C@H](O)[C@@H](O)C(=O)NCC=C [compound 5, DATD]
X-ray crystallography, 2.80 Å, co-crystal ([2]; position overlaps EMAA): clear electron density attributable to EMAA and DATD

stoichiometry N [3]: 2
Compound: LkcE wild type (amide oxidase/macrocyclase of lankacidin biosynthesis, Streptomyces rochei) (enzyme)
